Literature values as cited in PMC9546217, “Exploring novel nitrofuranyl sulfonohydrazides as anti‐Leishmania and anti‐cancer agents: Synthesis, in vitro efficacy and hit identification” (Chemical Biology & Drug Design, 2022).

Key:
Design in all cases: method as in Alsaeedi et al., [2015]
Conditions in all cases: diffusion method; ref Alsaeedi et al., [2015]; cited from earlier work
[1] = tested on: Salmonella susi (ATTC 13070)
[2] = tested on: Pseudomonas aeruginosa (ATCC 27853)
[3] = tested on: Escherichia coli (ATCC 25922)

For `Cc1ccc(S(=O)(=O)N/N=C/c2ccc([N+](=O)[O-])o2)cc1` [2c, (E)-4-Methyl-N'-[(5-nitrofuran-2-yl)methylene]benzenesulfonohydrazide], the inhibition zone [1] is given as 20 mm, the “antimicrobial activity (inhibition zone)” value [2] is given as “no activity” and the “antimicrobial activity (inhibition zone)” value [3] is given as “no activity”.
